Measurements as given in ChEMBL document CHEMBL1154484, “A QSAR study for the cytotoxic activities of taxoids against macrophage (MPhi)-like cells” (Eur J Med Chem, 2009).

Columns and labels:
[1] = Cytotoxicity against mouse J7.DEF.3 cells; assay type: cell-based
[2] = Cytotoxicity against mouse J774.1 cells; assay type: cell-based

SMILES: CC(=O)O[C@H]1C(=O)[C@@]2(C)[C@H]([C@H](OC(=O)c3ccccc3)[C@]3(O)C[C@H](OC(=O)[C@H](O)[C@@H](NC(=O)c4ccc(C)cc4)c4ccccc4)C(C)=C1C3(C)C)[C@]1(OC(C)=O)CO[C@@H]1C[C@@H]2O
- log(1/C) [1]: 7.82
- log(1/C) [2]: 7.77

SMILES: CC(=O)O[C@H]1C(=O)[C@@]2(C)[C@H]([C@H](OC(=O)c3ccccc3)[C@]3(O)C[C@H](OC(=O)[C@H](O)[C@@H](NC(=O)c4ccc(-c5ccccc5)cc4)c4ccccc4)C(C)=C1C3(C)C)[C@]1(OC(C)=O)CO[C@@H]1C[C@@H]2O
- log(1/C) [1]: 6.85
- log(1/C) [2]: 7.31

SMILES: CC(=O)O[C@H]1C(=O)[C@@]2(C)[C@H]([C@H](OC(=O)c3ccccc3)[C@]3(O)C[C@H](OC(=O)[C@H](O)[C@@H](NC(=O)c4ccc5ccccc5c4)c4ccccc4)C(C)=C1C3(C)C)[C@]1(OC(C)=O)CO[C@@H]1C[C@@H]2O
- log(1/C) [1]: 7.26
- log(1/C) [2]: 7.68

SMILES: CC(=O)O[C@H]1C(=O)[C@@]2(C)[C@H]([C@H](OC(=O)c3ccccc3)[C@]3(O)C[C@H](OC(=O)[C@H](O)[C@@H](NC(=O)c4ccc(F)cc4F)c4ccccc4)C(C)=C1C3(C)C)[C@]1(OC(C)=O)CO[C@@H]1C[C@@H]2O
- log(1/C) [1]: 7.6
- log(1/C) [2]: 7.59

SMILES: CC(=O)O[C@H]1C(=O)[C@@]2(C)[C@H]([C@H](OC(=O)c3ccccc3)[C@]3(O)C[C@H](OC(=O)[C@H](O)[C@@H](NC(=O)c4ccc(C(C)(C)C)cc4)c4ccccc4)C(C)=C1C3(C)C)[C@]1(OC(C)=O)CO[C@@H]1C[C@@H]2O
- log(1/C) [1]: 7.6
- log(1/C) [2]: 7.62

SMILES: CC(=O)O[C@H]1C(=O)[C@@]2(C)[C@H]([C@H](OC(=O)c3ccccc3)[C@]3(O)C[C@H](OC(=O)[C@H](O)[C@@H](NC(=O)c4cccs4)c4ccccc4)C(C)=C1C3(C)C)[C@]1(OC(C)=O)CO[C@@H]1C[C@@H]2O
- log(1/C) [1]: 7.8
- log(1/C) [2]: 8.7

SMILES: CC(=O)O[C@@]12CO[C@@H]1C[C@H](O)[C@@]1(C)C(=O)[C@H](O)C3=C(C)[C@@H](OC(=O)[C@H](O)[C@@H](NC(=O)OC(C)(C)C)c4ccccc4)C[C@@](O)([C@@H](OC(=O)c4ccccc4)[C@H]21)C3(C)C.O.O.O [DOCETAXEL]
- log(1/C) [1]: 8.14
- log(1/C) [2]: 8.24

SMILES: COc1ccc(C(=O)N[C@@H](c2ccccc2)[C@@H](O)C(=O)O[C@H]2C[C@@]3(O)[C@@H](OC(=O)c4ccccc4)[C@@H]4[C@]5(OC(C)=O)CO[C@@H]5C[C@H](O)[C@@]4(C)C(=O)[C@H](OC(C)=O)C(=C2C)C3(C)C)cc1
- log(1/C) [1]: 7.43
- log(1/C) [2]: 7.23

SMILES: CC(=O)O[C@H]1C(=O)[C@@]2(C)[C@H]([C@H](OC(=O)c3ccccc3)[C@]3(O)C[C@H](OC(=O)[C@H](O)[C@@H](NC(=O)/C=C/c4ccccc4)c4ccccc4)C(C)=C1C3(C)C)[C@]1(OC(C)=O)CO[C@@H]1C[C@@H]2O
- log(1/C) [1]: 7.11
- log(1/C) [2]: 7.52

SMILES: CCc1ccc(C(=O)N[C@@H](c2ccccc2)[C@@H](O)C(=O)O[C@H]2C[C@@]3(O)[C@@H](OC(=O)c4ccccc4)[C@@H]4[C@]5(OC(C)=O)CO[C@@H]5C[C@H](O)[C@@]4(C)C(=O)[C@H](OC(C)=O)C(=C2C)C3(C)C)cc1
- log(1/C) [1]: 7.85
- log(1/C) [2]: 7.82

SMILES: CC(=O)O[C@H]1C(=O)[C@@]2(C)[C@H]([C@H](OC(=O)c3ccccc3)[C@]3(O)C[C@H](OC(=O)[C@H](O)[C@@H](NC(=O)c4ccccc4)c4ccccc4)C(C)=C1C3(C)C)[C@]1(OC(C)=O)CO[C@@H]1C[C@@H]2O [PACLITAXEL]
- log(1/C) [1]: 7.52
- log(1/C) [2]: 7.48

SMILES: CC(=O)O[C@H]1C(=O)[C@@]2(C)[C@H]([C@H](OC(=O)c3ccccc3)[C@]3(O)C[C@H](OC(=O)[C@H](O)[C@@H](NC(=O)c4ccc(Cl)cc4)c4ccccc4)C(C)=C1C3(C)C)[C@]1(OC(C)=O)CO[C@@H]1C[C@@H]2O
- log(1/C) [1]: 7.59
- log(1/C) [2]: 7.52

SMILES: CC(=O)O[C@H]1C(=O)[C@@]2(C)[C@H]([C@H](OC(=O)c3ccccc3)[C@]3(O)C[C@H](OC(=O)[C@H](O)[C@@H](NC(=O)c4ccco4)c4ccccc4)C(C)=C1C3(C)C)[C@]1(OC(C)=O)CO[C@@H]1C[C@@H]2O
- log(1/C) [1]: 6.7
- log(1/C) [2]: 8.3

SMILES: COc1ccc(C(=O)N[C@@H](c2ccccc2)[C@@H](O)C(=O)O[C@H]2C[C@@]3(O)[C@@H](OC(=O)c4ccccc4)[C@@H]4[C@]5(OC(C)=O)CO[C@@H]5C[C@H](O)[C@@]4(C)C(=O)[C@H](OC(C)=O)C(=C2C)C3(C)C)c(OC)c1
- log(1/C) [1]: 7.08
- log(1/C) [2]: 7.12

SMILES: CC(=O)O[C@H]1C(=O)[C@@]2(C)[C@H]([C@H](OC(=O)c3ccccc3)[C@]3(O)C[C@H](OC(=O)[C@H](O)[C@@H](NC(=O)c4cccc5ccccc45)c4ccccc4)C(C)=C1C3(C)C)[C@]1(OC(C)=O)CO[C@@H]1C[C@@H]2O
- log(1/C) [1]: 6.43
- log(1/C) [2]: 7.17

SMILES: CC(=O)O[C@H]1C(=O)[C@@]2(C)[C@H]([C@H](OC(=O)c3ccccc3)[C@]3(O)C[C@H](OC(=O)[C@H](O)[C@@H](NC(=O)Cc4ccccc4)c4ccccc4)C(C)=C1C3(C)C)[C@]1(OC(C)=O)CO[C@@H]1C[C@@H]2O
- log(1/C) [1]: 7.32
- log(1/C) [2]: 7.11

SMILES: CCCc1ccc(C(=O)N[C@@H](c2ccccc2)[C@@H](O)C(=O)O[C@H]2C[C@@]3(O)[C@@H](OC(=O)c4ccccc4)[C@@H]4[C@]5(OC(C)=O)CO[C@@H]5C[C@H](O)[C@@]4(C)C(=O)[C@H](OC(C)=O)C(=C2C)C3(C)C)cc1
- log(1/C) [1]: 7.77
- log(1/C) [2]: 7.74

SMILES: COc1ccc(C(=O)N[C@@H](c2ccccc2)[C@@H](O)C(=O)O[C@H]2C[C@@]3(O)[C@@H](OC(=O)c4ccccc4)[C@@H]4[C@]5(OC(C)=O)CO[C@@H]5C[C@H](O)[C@@]4(C)C(=O)[C@H](OC(C)=O)C(=C2C)C3(C)C)cc1OC
- log(1/C) [1]: 7.24
- log(1/C) [2]: 7.21

SMILES: CC(=O)O[C@H]1C(=O)[C@@]2(C)[C@H]([C@H](OC(=O)c3ccccc3)[C@]3(O)C[C@H](OC(=O)[C@H](O)[C@@H](NC(=O)c4ccc(F)cc4)c4ccccc4)C(C)=C1C3(C)C)[C@]1(OC(C)=O)CO[C@@H]1C[C@@H]2O
- log(1/C) [1]: 7.77
- log(1/C) [2]: 7.68
